Results published in ChEMBL document CHEMBL1649413, “Structure-activity relationship of 4(5)-aryl-2-amino-1H-imidazoles, N1-substituted 2-aminoimidazoles and imidazo[1,2-a]pyrimidinium salts as inhibitors of biofilm formation by Salmonella typhimurium and Pseudomonas aeruginosa” (J Med Chem, 2011).
Active and inactive are the calls of the source. No cut-off for these calls is given here.

Assays:
Salmonella typhimurium [1] = assay: Antibiofilm activity in Salmonella Typhimurium ATCC 14028 assessed as inhibition of biofilm formation at 25 degC after 24 hrs; type: functional, organism-based, Salmonella enterica subsp. enterica serovar Typhimurium; conditions: Salmonella enterica, ATCC 14028, 24 h
Salmonella typhimurium [2] = assay: Antimicrobial activity against Salmonella Typhimurium ATCC 14028 assessed as inhibition of planktonic growth at 40 uM at 25 degC after 24 hrs; type: functional, organism-based; conditions: Salmonella enterica subsp. enterica serovar Typhimurium
Salmonella typhimurium [3] = assay: Antimicrobial activity against Salmonella Typhimurium ATCC 14028 assessed as inhibition of planktonic growth at 20 uM at 25 degC after 24 hrs; type: functional, organism-based; conditions: Salmonella enterica subsp. enterica serovar Typhimurium
Salmonella typhimurium [4] = assay: Antimicrobial activity against Salmonella Typhimurium ATCC 14028 assessed as inhibition of planktonic growth at 10 uM at 25 degC after 24 hrs; type: functional, organism-based; conditions: Salmonella enterica subsp. enterica serovar Typhimurium
Salmonella typhimurium [5] = assay: Antibiofilm activity in Salmonella Typhimurium ATCC 14028 assessed as inhibition of biofilm formation at 37 degC after 24 hrs; type: functional, organism-based, Salmonella enterica subsp. enterica serovar Typhimurium; conditions: Salmonella enterica, ATCC 14028, 24 h
Salmonella typhimurium [6] = assay: Antimicrobial activity against Salmonella Typhimurium ATCC 14028 assessed as inhibition of planktonic growth at 400 uM at 37 degC after 24 hrs; type: functional, organism-based; conditions: Salmonella enterica subsp. enterica serovar Typhimurium
Pseudomonas aeruginosa [7] = assay: Antibiofilm activity in Pseudomonas aeruginosa assessed as inhibition of biofilm formation at 25 degC after 24 hrs; type: functional, organism-based
Pseudomonas aeruginosa [8] = assay: Antimicrobial activity against Pseudomonas aeruginosa assessed as inhibition of planktonic growth at 40 uM at 25 degC after 24 hrs; type: functional, organism-based
Pseudomonas aeruginosa [9] = assay: Antimicrobial activity against Pseudomonas aeruginosa assessed as inhibition of planktonic growth at 10 uM at 25 degC after 24 hrs; type: functional, organism-based
Pseudomonas aeruginosa [10] = assay: Antibiofilm activity in Pseudomonas aeruginosa assessed as inhibition of biofilm formation at 37 degC after 24 hrs; type: functional, organism-based
Pseudomonas aeruginosa [11] = assay: Antimicrobial activity against Pseudomonas aeruginosa assessed as inhibition of planktonic growth at 800 uM at 37 degC after 24 hrs; type: functional, organism-based
Pseudomonas aeruginosa [12] = assay: Antimicrobial activity against Pseudomonas aeruginosa assessed as inhibition of planktonic growth at 400 uM at 37 degC after 24 hrs; type: functional, organism-based
Salmonella typhimurium [13] = assay: Antimicrobial activity against Salmonella Typhimurium ATCC 14028 assessed as inhibition of planktonic growth at 400 uM at 25 degC after 24 hrs; type: functional, organism-based; conditions: Salmonella enterica subsp. enterica serovar Typhimurium
Salmonella typhimurium [14] = assay: Antimicrobial activity against Salmonella Typhimurium ATCC 14028 assessed as inhibition of planktonic growth at 25 uM at 25 degC after 24 hrs; type: functional, organism-based; conditions: Salmonella enterica subsp. enterica serovar Typhimurium
Pseudomonas aeruginosa [15] = assay: Antimicrobial activity against Pseudomonas aeruginosa assessed as inhibition of planktonic growth at 100 uM at 25 degC after 24 hrs; type: functional, organism-based
Pseudomonas aeruginosa [16] = assay: Antimicrobial activity against Pseudomonas aeruginosa assessed as inhibition of planktonic growth at 50 uM at 25 degC after 24 hrs; type: functional, organism-based
Pseudomonas aeruginosa [17] = assay: Antimicrobial activity against Pseudomonas aeruginosa assessed as inhibition of planktonic growth at 100 uM at 37 degC after 24 hrs; type: functional, organism-based
Pseudomonas aeruginosa [18] = assay: Antimicrobial activity against Pseudomonas aeruginosa assessed as inhibition of planktonic growth at 40 uM at 37 degC after 24 hrs; type: functional, organism-based
Pseudomonas aeruginosa [19] = assay: Antimicrobial activity against Pseudomonas aeruginosa assessed as inhibition of planktonic growth at 20 uM at 37 degC after 24 hrs; type: functional, organism-based

Nc1nc(-c2ccc(-c3ccccc3)cc2)c[nH]1
IC50 (Salmonella typhimurium [1]): 17.3 µM | inhibition (Salmonella typhimurium [2]): Active | inhibition (Salmonella typhimurium [3]): Active | inhibition (Salmonella typhimurium [4]): inactive | IC50 (Salmonella typhimurium [5]): 349 µM | inhibition (Salmonella typhimurium [6]): Active | IC50 (Pseudomonas aeruginosa [7]): 8.6 µM | inhibition (Pseudomonas aeruginosa [8]): inactive | inhibition (Pseudomonas aeruginosa [9]): inactive | IC50 (Pseudomonas aeruginosa [10]): 365 µM | inhibition (Pseudomonas aeruginosa [11]): Active | inhibition (Pseudomonas aeruginosa [12]): Active

Nc1ncc(-c2ccc([N+](=O)[O-])cc2)[nH]1
inhibition (Salmonella typhimurium [13]): Active | IC50 (Salmonella typhimurium [1]): 17.6 µM | inhibition (Salmonella typhimurium [2]): Active | inhibition (Salmonella typhimurium [14]): inactive | inhibition (Salmonella typhimurium [4]): inactive | IC50 (Salmonella typhimurium [5]): 396 µM | inhibition (Salmonella typhimurium [6]): Active | IC50 (Pseudomonas aeruginosa [7]): 34.5 µM | inhibition (Pseudomonas aeruginosa [15]): Active | inhibition (Pseudomonas aeruginosa [16]): inactive | IC50 (Pseudomonas aeruginosa [10]): 94 µM | inhibition (Pseudomonas aeruginosa [17]): inactive | inhibition (Pseudomonas aeruginosa [18]): inactive | inhibition (Pseudomonas aeruginosa [19]): inactive
